pEC50: −log10 of the molar value.
Target: T1, TDO2 (Homo sapiens, UniProt P48775)
T1 construct: decreased levels of NFK in SW48 cells (high TDO expressing cells)
Assay: TDO2 cell assay (NFK GreenScreen, SW48 cells)
Format: cell-based
Conditions: SW48 cells (high TDO expressing), 200 uM tryptophan, 24 hours; Table 3; read-out: TDO2 Cell Fluor EC50

T1 sequence (P48775 whole entry): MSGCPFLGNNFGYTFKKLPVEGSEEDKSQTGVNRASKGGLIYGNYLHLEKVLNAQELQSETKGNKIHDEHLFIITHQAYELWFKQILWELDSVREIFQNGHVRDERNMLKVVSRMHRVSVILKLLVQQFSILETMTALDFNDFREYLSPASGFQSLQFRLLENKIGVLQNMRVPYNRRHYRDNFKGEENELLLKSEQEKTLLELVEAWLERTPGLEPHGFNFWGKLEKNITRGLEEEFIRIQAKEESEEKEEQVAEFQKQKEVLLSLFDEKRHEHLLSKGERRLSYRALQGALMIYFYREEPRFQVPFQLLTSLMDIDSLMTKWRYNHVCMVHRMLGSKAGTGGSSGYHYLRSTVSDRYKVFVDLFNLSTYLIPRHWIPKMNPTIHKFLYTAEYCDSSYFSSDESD

Row | Compound | pEC50
1 | N#CCN1CCC(O)C(C2c3ccccc3-c3cncn32)C1 (single isomer, unassigned) [Example 14b] | < 4.60
2 | N#CCN1CCC(O)C(C2c3ccccc3-c3cncn32)C1 (single isomer, unassigned) [Example 14c] | 4.70
3 | N#CCN1CCC(O)C(C2c3ccccc3-c3cncn32)C1 (single isomer, unassigned) [Example 14d] | < 4.60
4 | CCS(=O)(=O)N1CCC(O)C(C2c3ccccc3-c3cncn32)C1 (single isomer, unassigned) [Example 15a] | < 4.60
5 | CCS(=O)(=O)N1CCC(O)C(C2c3ccccc3-c3cncn32)C1 (single isomer, unassigned) [Example 15b] | < 4.60
6 | CCS(=O)(=O)N1CCC(O)C(C2c3ccccc3-c3cncn32)C1 (single isomer, unassigned) [Example 15c] | 5.12
7 | CCS(=O)(=O)N1CCC(O)C(C2c3ccccc3-c3cncn32)C1 (single isomer, unassigned) [Example 15d] | < 4.60
8 | O[C@@H]1CCC(F)(F)C[C@@H]1[C@H]1c2ccccc2-c2cncn21 (single isomer, unassigned) [Example 18b] | 7.21
9 | OC1CCC(F)(F)CC1C1c2ccccc2-c2cncn21 (single isomer, unassigned) [Example 18c, 4,4-difluoro-2-(5H-imidazo[5,1-a]isoindol-5-yl)cyclohexan-1-ol] | 6.49
10 | OC1CCC(F)(F)CC1C1c2ccccc2-c2cncn21 (single isomer, unassigned) [Example 18d, 4,4-difluoro-2-(5H-imidazo[5,1-a]isoindol-5-yl)cyclohexan-1-ol] | 5.10
11 | O[C@H]1CCC(F)(F)C[C@H]1[C@@H]1c2ccccc2-c2cncn21 (single isomer, unassigned) [Example 18f] | 4.82
12 | OC1CCC(F)(F)CC1C1c2ccccc2-c2cncn21 (single isomer, unassigned) [Example 18g, 4,4-difluoro-2-(5H-imidazo[5,1-a]isoindol-5-yl)cyclohexan-1-ol] | 6.96
13 | OC1CCC(F)(F)CC1C1c2ccccc2-c2cncn21 (single isomer, unassigned) [Example 18h, 4,4-difluoro-2-(5H-imidazo[5,1-a]isoindol-5-yl)cyclohexan-1-ol] | 4.89
14 | OC1c2ccccc2CC1C1c2ccccc2-c2cncn21 (single isomer, unassigned) [Example 19a] | 5.13
15 | OC1c2ccccc2CC1C1c2ccccc2-c2cncn21 (single isomer, unassigned) [Example 19b] | 6.29
16 | OC1c2ccccc2CC1C1c2ccccc2-c2cncn21 (single isomer, unassigned) [Example 19c] | 6.74
17 | OC1c2ccccc2CC1C1c2ccccc2-c2cncn21 (single isomer, unassigned) [Example 19d] | 6.70
18 | OC1c2ccccc2CC1C1c2ccccc2-c2cncn21 (single isomer, unassigned) [Example 19e] | 5.70
19 | OC1c2ccccc2CC1C1c2ccccc2-c2cncn21 (single isomer, unassigned) [Example 19f] | 5.36
20 | OC1CCCC1C1c2ccc(F)cc2-c2cncn21 (single isomer, unassigned) [Example 20a] | < 4.60
21 | OC1CCCC1C1c2ccc(F)cc2-c2cncn21 (single isomer, unassigned) [Example 20b] | 6.37
22 | OC1CCCC1C1c2ccc(F)cc2-c2cncn21 (single isomer, unassigned) [Example 20c] | 5.44

Row | Compound | pEC50
23 | OC1CCCC1C1c2ccc(F)cc2-c2cncn21 (single isomer, unassigned) [Example 20d] | 7.00
24 | CC1(C)CC(O)C1C1c2ccccc2-c2cncn21 (single isomer, unassigned) [Example 22d] | 5.16
25 | CC1(C)C[C@@H](O)[C@H]1[C@H]1c2ccccc2-c2cncn21 (single isomer, unassigned) [Example 22f] | 5.96
26 | CC1(C)C[C@@H](O)[C@H]1[C@H]1c2ccccc2-c2cncn21 (single isomer, unassigned) [Example 22g] | 6.11
27 | CC1(C)CC(O)C1C1c2ccccc2-c2cncn21 (single isomer, unassigned) [Example 22h] | 6.40
28 | CC1(C)CCC(C2c3ccccc3-c3cncn32)C1O (single isomer, unassigned) [Example 23a] | < 4.60
29 | CC1(C)CCC(C2c3ccccc3-c3cncn32)C1O (single isomer, unassigned) [Example 23b] | 7.07
30 | CC1(C)CCC(C2c3ccccc3-c3cncn32)C1O (single isomer, unassigned) [Example 23c] | 7.09
31 | CC1(C)CCC(C2c3ccccc3-c3cncn32)C1O (single isomer, unassigned) [Example 23d] | 6.96
32 | CC1(C)CCC(C2c3ccccc3-c3cncn32)C1O (single isomer, unassigned) [Example 23e] | 4.77
33 | CC1(C)CCC(C2c3ccccc3-c3cncn32)C1O (single isomer, unassigned) [Example 23f] | 5.57
34 | CC1(C)CCCC(C2c3ccccc3-c3cncn32)C1O (single isomer, unassigned) [Example 24a] | 7.24
35 | CC1(C)CCCC(C2c3ccccc3-c3cncn32)C1O (single isomer, unassigned) [Example 24b] | 5.06
36 | CC1(C)CCCC(C2c3ccccc3-c3cncn32)C1O (single isomer, unassigned) [Example 24c] | 5.26
37 | CC1(C)CCCC(C2c3ccccc3-c3cncn32)C1O (single isomer, unassigned) [Example 24d] | 5.96
38 | CC1(C)CCCC(C2c3ccccc3-c3cncn32)C1O (single isomer, unassigned) [Example 24e] | 6.89
39 | CC1(C)CCCC(C2c3ccccc3-c3cncn32)C1O (single isomer, unassigned) [Example 24g] | 6.47
40 | CC1(C)CCCC(C2c3ccccc3-c3cncn32)C1O (single isomer, unassigned) [Example 24h] | 4.92
41 | OC1CCCCC1C1c2ccc(F)cc2-c2cncn21 (single isomer, unassigned) [Example 25a] | 6.29
42 | OC1CCCCC1C1c2ccc(F)cc2-c2cncn21 (single isomer, unassigned) [Example 25b] | < 4.60
43 | OC1CCCCC1C1c2ccc(F)cc2-c2cncn21 (single isomer, unassigned) [Example 25c] | 4.70
44 | OC1CCCCC1C1c2ccc(F)cc2-c2cncn21 (single isomer, unassigned) [Example 25d] | 7.32

Row | Compound | pEC50
45 | OC1COCC1C1c2ccccc2-c2cncn21 (single isomer, unassigned) [Example 26a] | < 4.60
46 | OC1COCC1C1c2ccccc2-c2cncn21 (single isomer, unassigned) [Example 26b] | 6.64
47 | OC1COCC1C1c2ccccc2-c2cncn21 (single isomer, unassigned) [Example 26c] | 6.15
48 | OC1COCC1C1c2ccccc2-c2cncn21 (single isomer, unassigned) [Example 26d] | < 4.60
49 | N#CCN1CC[C@@H]([C@H]2c3ccccc3-c3cncn32)[C@H](O)C1 (single isomer, unassigned) [Example 27a] | < 4.60
50 | N#CCN1CC[C@@H]([C@H]2c3ccccc3-c3cncn32)[C@H](O)C1 (single isomer, unassigned) [Example 27b] | 4.74
51 | N#CCN1CC[C@@H]([C@@H]2c3ccccc3-c3cncn32)[C@H](O)C1 (single isomer, unassigned) [Example 27d] | 5.52
52 | NS(=O)(=O)N1CC(O)C(C2c3ccccc3-c3cncn32)C1 (single isomer, unassigned) [Example 28a] | < 4.60
53 | NS(=O)(=O)N1CC(O)C(C2c3ccccc3-c3cncn32)C1 (single isomer, unassigned) [Example 28b] | 5.36
54 | NS(=O)(=O)N1CC(O)C(C2c3ccccc3-c3cncn32)C1 (single isomer, unassigned) [Example 28c] | < 4.60
55 | NS(=O)(=O)N1CC(O)C(C2c3ccccc3-c3cncn32)C1 (single isomer, unassigned) [Example 28d] | < 4.60
56 | O=c1cccc2n1CCC(C1c3ccccc3-c3cncn31)C2O (single isomer, unassigned) [Example 29a, 1-hydroxy-2-(5H-imidazo[5,1-a]isoindol-5-yl)-3,4-dihydro-1H-quinolizin-6(2H)-one] | < 4.60
57 | O=c1cccc2n1CCC(C1c3ccccc3-c3cncn31)C2O (single isomer, unassigned) [Example 29b, 1-hydroxy-2-(5H-imidazo[5,1-a]isoindol-5-yl)-3,4-dihydro-1H-quinolizin-6(2H)-one] | 6.17
58 | O=c1cccc2n1CCC(C1c3ccccc3-c3cncn31)C2O (single isomer, unassigned) [Example 29c, 1-hydroxy-2-(5H-imidazo[5,1-a]isoindol-5-yl)-3,4-dihydro-1H-quinolizin-6(2H)-one] | 4.62
59 | O=c1cccc2n1CCC(C1c3ccccc3-c3cncn31)C2O (single isomer, unassigned) [Example 29d, 1-hydroxy-2-(5H-imidazo[5,1-a]isoindol-5-yl)-3,4-dihydro-1H-quinolizin-6(2H)-one] | 5.24
60 | O=c1cccc2n1CCC(C1c3ccccc3-c3cncn31)C2O (single isomer, unassigned) [Example 29e, 1-hydroxy-2-(5H-imidazo[5,1-a]isoindol-5-yl)-3,4-dihydro-1H-quinolizin-6(2H)-one] | 6.36
61 | O=c1cccc2n1CCC(C1c3ccccc3-c3cncn31)C2O (single isomer, unassigned) [Example 29f, 1-hydroxy-2-(5H-imidazo[5,1-a]isoindol-5-yl)-3,4-dihydro-1H-quinolizin-6(2H)-one] | < 4.60
62 | OC1COCC1C1c2ccc(F)cc2-c2cncn21 (single isomer, unassigned) [Example 30a] | 6.59
63 | OC1COCC1C1c2ccc(F)cc2-c2cncn21 (single isomer, unassigned) [Example 30b] | 4.82
64 | OC1COCC1C1c2ccc(F)cc2-c2cncn21 (single isomer, unassigned) [Example 30c] | 5.68
